Experiment in all cases: NCI-60 cell line screen, 48 h
Test [1] has as its system ACHN renal.
For test [2], the system named is CCRF-CEM leukemia.
Test [3] relates to HOP-62 NSCLC.
Test [4] has as its system K-562 leukemia.
Test [5] concerns NCI-H460 lung.
Test [6] relates to OVCAR-4 ovarian.
Test [7] has as its system RPMI-8226 leukemia.
For test [8], the system named is SF-539 CNS.
The test system of test [9] is SW-620 colon.
Test [10] relates to EKVX NSCLC.

Structures are written as SMILES.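 Growth conditions: 96-well plates. Treatment: test compound, 48 hours, 5 concentrations. Analysis: linear interpolation between bracketing concentrations; unreached endpoints set to highest concentration. GI50: concentration for 50% inhibition of growth. TGI marks complete inhibition of growth.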

In the case of `CCCCCCCC/C=C/CCCCCCCC(=O)OC[C@H]1O[C@@H](n2ccc(N)nc2=O)C(F)(F)[C@@H]1O`, the GI50 was < 0.01 µM in test [1]; < 0.0158 µM in test [2]; < 0.0209 µM in [3]; 0.307 µM in test [4]; < 0.0212 µM in [5]; > 100 µM in [6]. The figures for the GI50 in test [7], in test [8] and in [9] were 0.128 µM, < 0.0183 µM and 0.0759 µM, respectively. In addition, the TGI is 6.07 µM in [1]; 2.09 µM in test [2]; > 100 µM in test [4]; > 33.4 µM in test [5]; > 100 µM in test [6]; > 100 µM in test [7]. For the same molecule, the TGI in test [8] was 1.17 µM; in test [9], > 100 µM.

In the case of `Cn1c(=O)c(C(c2ccc([N+](=O)[O-])cc2)c2c(O)c3ccccc3n(C)c2=O)cc2ccccc21` (stereo not drawn), the TGI in test [1] is > 100 µM; in test [10], > 100 µM; in [3], 75.2 µM; in test [4], > 100 µM; in [5], > 100 µM; in test [6], > 100 µM. For the same molecule, the TGI in test [7], in test [8] and in [9] was > 100 µM each time.

As for `Clc1nc(Cl)c(Cl)c(-c2ccccc2)n1`, the TGI was 33.5 µM in [1]; 30.7 µM in test [10]; 18.1 µM in [3]; > 100 µM in test [5]; 20.6 µM in test [6]; > 100 µM in test [7]. Also, the TGI was found to be 31.5 µM in test [8] and 5.62 µM in [9].

In the case of `COc1ccc(-c2n[nH]nc2-c2cc(OC)c(OC)c(OC)c2)cc1`, the GI50 is 0.0169 µM in [1]; < 0.01 µM in test [2]; < 0.01 µM in test [10]; < 0.01 µM in test [3]; < 0.01 µM in test [4]; < 0.01 µM in [5]. For the same molecule, the GI50 was < 0.0144 µM in test [6], < 0.01 µM in test [7] and < 0.01 µM in test [9]. Further, the TGI in test [1] is > 100 µM; in test [2], > 40.8 µM; in test [10], 29.6 µM; in [3] it was > 73.2 µM; in test [4], > 100 µM; in test [5], 26.3 µM. Besides, the TGI in test [6] was 43.3 µM; in [7], > 32.4 µM; in test [9], > 100 µM.

As for `O=C1OC(c2ccccc2)=N/C1=C\c1cccc2ccccc12`, the TGI in [1], in test [2], in [3], in test [4], in test [5] and in test [6] was > 100 µM each time. Moreover, the TGI in [7], in test [8] and in test [9] was > 100 µM each time.

Consider `Oc1cccnc1CN1CCCCC1`, for which the TGI in [1], in [10], in test [3], in test [4], in test [5] and in test [6] was > 100 µM in each case. The TGI in test [7], in [8] and in test [9] was > 100 µM in each case.

Regarding `O=C1C2C3C=C4c5ccccc5N(c5ccccc5)C4(C2C(=O)N1Cc1ccccc1)C1C(=O)N(Cc2ccccc2)C(=O)C31` (stereo not drawn), the TGI in test [1], in test [2], in test [4], in test [5], in test [8] and in [9] was > 100 µM in each case.

With `COc1cc(/C=C/c2cc(/C=C/c3ccc(O)c(OC)c3)n(C(=O)Nc3ccc(F)c(Cl)c3)n2)ccc1O`, the GI50 was 0.141 µM in test [1]; 0.131 µM in [2]; 1.22 µM in [10]; 0.409 µM in [3]; 0.288 µM in test [4]; 0.721 µM in test [6]. In addition, the GI50 in test [7] is 0.365 µM. For the same molecule, the TGI was 7.49 µM in test [1]; > 100 µM in test [2]; 6.98 µM in [10]; 1.59 µM in test [3]; 1.45 µM in test [4]; 5.47 µM in [6]. In addition, the TGI in [7] was found to be 1.73 µM.

Consider `NCCCCN(CCCN)/[N+]([O-])=N\O`, for which the TGI in test [1], in test [2], in [3], in [4], in [5] and in [6] was > 100 µM each time. Also, the TGI in test [7], in test [8] and in [9] was > 100 µM throughout.

`O=C1OC(C(O)CO)C(=O)C1=O` (stereo not drawn): the GI50 in test [1] is 2860 µM; in [2] it was 2940 µM; in [3], 3720 µM; in test [4], 2860 µM; in test [5], 3540 µM; in test [6] it was 5580 µM. For the same molecule, the values for the GI50 in test [7], in test [8] and in test [9] were 2460 µM, 2490 µM and 2070 µM, respectively. The TGI in [1] was > 10000 µM; in test [2], > 10000 µM; in test [3], 8570 µM; in test [4], 9080 µM; in test [5] it was > 10000 µM; in test [6] it was > 10000 µM. For the same molecule, the TGI in test [7] was 8420 µM; in test [8], 5440 µM; in test [9], 5080 µM.

Consider `Clc1ccc(C2=Nn3c(COc4ccccc4Cl)nnc3SC2)c(Cl)c1`, for which the GI50 in [1] was 17.3 µM; in [2], 30.6 µM; in test [10], 23.7 µM; in test [3] it was 24.3 µM; in test [5], 24.2 µM; in test [6], 26.9 µM. Further, the GI50 in test [7] was 44.7 µM; in test [9], 18.5 µM. Moreover, the TGI was 51.6 µM in test [1]; > 100 µM in test [2]; 80.8 µM in [10]; 65 µM in test [3]; > 100 µM in [5]; > 100 µM in [6]. In addition, the TGI in test [7] and in test [9] was > 100 µM in each case.

For the origin of these results see PubChem BioAssay (NCI).
